Measured values published in patent publication EP0123485A1, “Colon-specific prodrug, the preparation and uses thereof” (priority 1983, dated 1984).

Key:
[1] = Rate of hydrolysis in homogenized cecal contents; conditions: for Sp. act. / Tot. act.: cecal contents, 37 C; for hydrolysis by cecal contents, comparison in words: cecal content homogenates
Description: (§1) (The entire small intestine was divided into two, equal length segments to give PSI and DSI.) Gastrointestinal contents were obtained from male, Sprague-Dawley rats (300-400 g) which had been maintained on a stock diet (Purina rat chow) and water ad libitum. The intestinal contents of each section were pooled from four animals for each assay. […] Following removal, the contents were quickly weighed, then diluted to 100 milliliters (stomach, PSI, and DSI) or 200 milliliters (cecum) with cold 0.01 M phosphate buffer, pH 7.0. […] Homogenates were then stored on ice (ca 30 min). […] The reaction was run at 37 °C in a shaking water bath. The reaction was stopped after 10, 20, or 30 min by addition of 0.2 N NaOH (0.25 milliliters).
(§2) Stomach and PSI contents were diluted to 50 mL with 0.01 M phosphate buffer, pH 7.0, DSI contents to 25 mL, and cecal contents to 200 mL, prior to homogenization. The homogenates (2.1 mL of stomach, PSI, and DSI and 1.7 mL of cecum) were added to the appropriate substrate solution (0.01 M phosphate buffer, pH 7.0) to give 1.0 mM substrate in a total volume of 2.5 mL. At various times up to 30 min, aliquots (0.3 mL) were removed and quenched with MeOH (4.7 mL). After centrifugation (5,000 g, 10 min), the samples were diluted (1:1) with 0.01 M KH2PO4 and 20 microliters of the resulting solution was injected directly onto the HPLC column for analysis.

[2] = KM(app) and Vmax determinations (Eadie-Hofstee plots); type: in vitro ADME, rat; conditions: 15 min, 37 C
Description: KM(app) and VMax Determinations. The KM(app)-Vmax for the hydrolysis of p-NP-glc and p-NP-gal were determined using pooled cecal homogenates (200 mL) as described above. A range of substrate (56-1000 micromolar; final volume 2.25 mL) concentrations, spanning their apparent KM, was used for each reaction. The amount of cecal homogenate used was 0.04 mL. Velocities were obtained, in duplicate, at 37 °C in a shaking water bath and the reaction stopped by addition of 0.2 N NaOH (0.25 mL) after 15 min. Release of p-nitrophenol was measured spectrophotometrically at 403 nm. Eadie-Hofstee plots were used to determine the KM(app) (micromolar) and Vmax (micromolar/min/g) of both reactions. The wet weight (g), measured immediately after removal and pooling, was used throughout.
Again, cecal contents from four rats were pooled, weighed, diluted (100 mL, 0.01 M phosphate buffer, pH 7.0) and homogenized. A range of substrate concentrations (0.5-48 micromolar, final volume 2.5 mL) spanning the apparent KM, was used for each reaction. The amount of cecal homogenate used was 0.8 mL. Reactions were run, in duplicate, at 37°C in a shaking water bath. After 15 min, the reactions were stopped by removing aliquots (0.3 mL) and quenching them with MeOH (4.7 mL). […] Again, Eadie-Hofstee plots were used to determine the KM(app) and VMax.

[3] = Rate of hydrolysis in homogenized stomach contents; conditions: 37 C
[4] = Rate of hydrolysis in homogenized proximal small intestine contents; conditions: PSI contents, 37 C
[5] = Rate of hydrolysis in homogenized distal small intestine contents; conditions: for Sp. act. / Tot. act.: DSI contents, 37 C
Description: as §1, §2

[6] = Recovery of steroid glycoside and free steroid from intestinal contents and tissues after intragastric administration; type: in vivo, Sprague-Dawley rats; conditions: rat, in vivo, po
Description: Male, Sprague-Dawley rats (ca 250 g) were maintained on laboratory rat chow and water ad lib. These rats were fasted overnight (16 hr.) prior to administration of glucoside or free steroid. Water bottles were removed from the cages at least 30 min prior to drug administration. Prednisolone glucoside, 2, (7.5 mg) or dexamethasone glucoside, 1, (7.5 mg) was administered by gastric intubation as a solution (0.5 mL) of water/95% ethanol (3:1). Prednisolone, 4, (5.25 mg) or dexamethasone, 3, (5.1 mg) was administered as a solution (0.5 mL) of water/95% ethanol (1:1). After the appropriate interval of time -3, 4, 5 or 6 hr.- the animals were sacrificed by carbon dioxide anesthesia followed by thoractomy. The small intestine and cecum were removed and cut into segments. Contents were separated from the tissues by rinsing the segments with cold, 0.9% saline (5.0 mL). The contents were immediately diluted to 30 mL with methanol. The tissues were suspended in 0.01 M KH2P04 (5.0 mL). Then an internal standard, either prednisolone, 4, or dexamethasone, 3, depending on the experimental steroid, was added to all the samples. Both the contents and tissues were then homogenized with a Polytron Homogenizer (Brinkman Inst. Co.) at med. speed for 1-2 min. The contents were then diluted to 40 mL total volume with methanol. The tissues were diluted to 25 mL total volume with methanol. All the samples were centrifuged (5,000 g, 15 min) and then the supernatant solutions were passed through membrane filters (0.45 micrometers, Versapor 800). The samples (1.4 mL) were then diluted with 0.01 M KH2PO4 (0.6 mL) and 20 microliters of the resulting solution injected directly onto the HPLC column for analysis.

physchem = type: physicochemical; conditions: n-octanol / 0.01 M phosphate buffer pH 7.0, 37 C, agitated 30 min
Description: The partitioning of prodrugs and free steroids between n-octanol and an aqueous phase (0.01 phosphate buffer, pH 7.0) were determined at 37 °C. Both octanol and buffer were saturated with the relevant aqueous or organic phase before use. […] The intitial concentration of steroid was 10 mM dissolved in the organic phase. The amount of glycoside and free steroid in the aqueous phase at equilibrium was measured spectrophotometrically at 239 nm for the dexamethasone and fludrocortisone compounds and 242 nm for the prednisolone and hydrocortisone compounds. The concentration of glycoside or free steroid in the octanol phase was determined by difference.

[7] = 1.0 mM prodrug, release of free steroid by HPLC
[8] = prodrug 0.5-48 micromolar, 0.8 mL cecal homogenate, release of free steroid by HPLC, listed as galactoside 12
[9] = p-nitrophenyl substrate 56-1000 micromolar, 0.04 mL cecal homogenate, p-nitrophenol at 403 nm
[10] = prodrug 0.5-48 micromolar, 0.8 mL cecal homogenate, release of free steroid by HPLC, listed as galactoside 10
[11] = prodrug 0.5-48 micromolar, 0.8 mL cecal homogenate, release of free steroid by HPLC, listed as glucoside 5
[12] = pH 7.0, 1.0 mM p-nitrophenyl substrate, p-nitrophenol at 403 nm
[13] = pH ca 5.0, 1.0 mM p-nitrophenyl substrate, p-nitrophenol at 403 nm
[14] = prodrug 0.5-48 micromolar, 0.8 mL cecal homogenate, release of free steroid by HPLC, listed as glucoside 7
[15] = prodrug 0.5-48 micromolar, 0.8 mL cecal homogenate, release of free steroid by HPLC, listed as galactoside 11
[16] = prodrug 0.5-48 micromolar, 0.8 mL cecal homogenate, release of free steroid by HPLC, listed as galactoside 9

| Compound | Sp. act. [1, 7] [nmoles/min/g wet weight] | Tot. act. [1, 7] [µmol/min] | Sp. act. [3, 7] [nmoles/min/g wet weight] | Tot. act. [3, 7] [µmol/min] | Sp. act. [4, 7] [nmoles/min/g wet weight] | Tot. act. [4, 7] [µmol/min] | Sp. act. [5, 7] [nmoles/min/g wet weight] | Tot. act. [5, 7] [µmol/min] | also measured |
| --- | --- | --- | --- | --- | --- | --- | --- | --- | --- |
| CC12CCC(=O)C=C1CCC1C3CCC(O)(C(=O)COC4OC(CO)C(O)C(O)C4O)C3(C)CC(O)C12F [Compound 12, 9 alpha-Fluoro-11 beta, 17 alpha-dihydroxy-3, 20-dioxopregna-4-en-21-yl beta-D-galactopyranoside] | 642 | 12.9 | 7.0 | 0.01 | 12.5 | 0.01 | 56.7 | 0.80 | Km [2, 8]: 33.3 µM; Vmax [2, 8]: 20.6 µM/min/g |
| O=[N+]([O-])c1ccc(O[C@@H]2O[C@H](CO)[C@@H](O)[C@H](O)[C@H]2O)cc1 [p-NP-glc, p-nitrophenyl-beta-D-glucoside, reference compound] | – | – | – | – | – | – | – | – | Km [2, 9]: 360 µM; Vmax [2, 9]: 697 µM/min/g |
| C[C@@H]1C[C@H]2[C@@H]3CCC4=CC(=O)C=C[C@]4(C)[C@@]3(F)[C@@H](O)C[C@]2(C)[C@@]1(O)C(=O)CO [Compound 3, 9 alpha-Fluoro-11 beta, 17 alpha-21 trihydroxy-16 alpha-methyl-3, 20-dioxopregna-1,4-diene, reference compound] | – | – | – | – | – | – | – | – | recovery at 3 h [6]: 3.9%; free steroid recovered in the cecum, as equivalent of the administered dose ([6]; 5 h): 44% |
| CC12C=CC(=O)C=C1CCC1C2C(O)CC2(C)C1CCC2(O)C(=O)COC1OC(CO)C(O)C(O)C1O [Compound 10, 11 beta, 17 alpha-dihydroxy-3,20-dioxopregna-l,4-dien-21-yl beta-D-galactopyranoside] | 665 | 13 | 12.1 | 0.19 | 49.3 | 0.23 | 122 | 1.72 | Km [2, 10]: 20 µM; Vmax [2, 10]: 10.3 µM/min/g |
| CC12CCC(=O)C=C1CCC1C2C(O)CC2(C)C1CCC2(O)C(=O)COC1OC(CO)C(O)C(O)C1O [Compound 5, 11 beta, 17 alpha-Dihydroxy-3, 20-dioxopregna-4-en-21-yl beta-D-glucopyranoside] | 30.5 | 0.76 | 5.5 | 0.09 | 15.9 | 0.10 | 39.2 | 0.70 | hydrolysis by cecal contents, comparison in words [1]: hydrolyzed more slowly than the other glucoside prodrugs; Km [2, 11]: 5.7 µM; Vmax [2, 11]: 2.6 µM/min/g |
| C[C@]12CCC(=O)C=C1CC[C@@H]1[C@@H]2[C@@H](O)C[C@@]2(C)[C@H]1CC[C@]2(O)C(=O)CO [Compound 6, 11 beta, 17 alpha-21-Trihydroxy-3, 20-dioxopregna-4-ene] | – | – | – | – | – | – | – | – | Log P (physchem): 1.54 |
| O=[N+]([O-])c1ccc(O[C@@H]2O[C@H](CO)[C@@H](O[C@@H]3O[C@H](CO)[C@@H](O)[C@H](O)[C@H]3O)[C@H](O)[C@H]2O)cc1 [p-NP-cel, p-nitrophenyl-beta-D-cellobioside, reference compound] | – | – | – | – | – | – | – | – | Sp. act. [1, 12]: 96.5 nmoles/min/g wet weight; Tot. act. [1, 12]: 2.6 µmol/min; Sp. act. [3, 13]: 34.2 nmoles/min/g wet weight; Tot. act. [3, 13]: 0.35 µmol/min; Sp. act. [4, 12]: 7.2 nmoles/min/g wet weight; Tot. act. [4, 12]: 0.05 µmol/min; Sp. act. [5, 12]: 26.0 nmoles/min/g wet weight; Tot. act. [5, 12]: 0.25 µmol/min |
| CC12CCC(=O)C=C1CCC1C3CCC(O)(C(=O)COC4OC(CO)C(O)C(O)C4O)C3(C)CC(O)C12F [Compound 7, 9 alpha-Fluoro-11 beta, 17 alpha-dihydroxy-3, 20-dioxopregna-4-en-21-yl beta-D-glucopyranoside] | 42.0 | 1.4 | 7.7 | 0.14 | 12.3 | 0.08 | 33.0 | 0.43 | hydrolysis by cecal contents, comparison in words [1]: hydrolyzed more slowly than the other glucoside prodrugs; Km [2, 14]: 4.4 µM; Vmax [2, 14]: 2.4 µM/min/g |
| CC12CCC(=O)C=C1CCC1C2C(O)CC2(C)C1CCC2(O)C(=O)COC1OC(CO)C(O)C(O)C1O [Compound 11, 11 beta, 17 alpha-Dihydroxy-3, 20-dioxopregna-4-en-21-yl beta-D-galactopyranoside] | 592 | 11.9 | 12.5 | 0.02 | 42.5 | 0.02 | 110 | 1.6 | Km [2, 15]: 16.7 µM; Vmax [2, 15]: 10.2 µM/min/g |
| CC1CC2C3CCC4=CC(=O)C=CC4(C)C3(F)C(O)CC2(C)C1(O)C(=O)COC1OC(CO)C(O)C(O)C1O [Compound 9, 9 alpha-Fluoro-11 beta, 17 alpha-dihydroxy-16 alpha-methyl-3, 20-dioxopregna-1,4-dien-21-yl beta-D-galactopyranoside] | 322 | 6.5 | 2.0 | 0.004 | 11.7 | 0.004 | 29.3 | 0.41 | Km [2, 16]: 13.3 µM; Vmax [2, 16]: 3.9 µM/min/g; hydrolysis by DSI contents, comparison in words ([5]; homogenates of DSI contents): more resistant to hydrolysis than the other prodrugs |
| O=[N+]([O-])c1ccc(O[C@@H]2O[C@H](CO)[C@H](O)[C@H](O)[C@H]2O)cc1 [p-NP-gal, p-nitrophenyl-beta-D-galactoside, reference compound] | – | – | – | – | – | – | – | – | Km [2, 9]: 166 µM; Vmax [2, 9]: 1233 µM/min/g |
